One data set relates to ICR mice. In words: Toxicity assay of inhibitors. As to conditions: for toxicity: i.v. 2.5 mg/kg, N = 4, 7 days. It is filed as in vivo. Here is the method:
S4. Toxicity Assay of Inhibitors
Eight specific pathogen free (SPF) ICR mice weighing about 18-22 g (HFK Bioscience Co., Ltd., Beijing, China) were randomly divided into two groups (N=4, half males and half females), and then treated with LWWNSYY or L-PGMA NPs (i.v., 2.5mg/10ml/kg) to investigate their toxicity, respectively. After treatment, animals were maintained under standard conditions with food ad libitum and maintained in a 12 h/12 h light/dark cycle at room temperature. Behavior, mortality and any other clinical signs of mice were observed […]
1.Bullock, A. N. et al., Thermodynamic stability of wild-type and mutant p53 core domain. P. Natl Acad. Sci.

For data set [1], the system named is platelet adhesion on collagen peptide. As to the kind of experiment: Platelet solid-phase adhesion assay on collagen peptide. The format is cell-based, sheep. As to conditions: for IC50, concentration required to inhibit half of the specific binding (platelet adhesion): collagen peptide coated 100 μg/mL, inhibitor in normal saline 1 h at 18 °C, washed, platelets 1 h at 18 °C, p-nitrophenyl phosphate read-out 405 nm, L-PGMA NPs concentration = conjugated LWWNSYY. From the text: (§1) Glycidyl methacrylate (97%) and ethylene glycol dimethacrylate (97%) were purchased from Sigma-Aldrich (St. Louis, MO, USA). Dimethy sulfoxide (DMSO), epichlorohydrin (ECH), EG and sodium borohydride (NaBH4) were of analytical grade from Guangfu Fine Chemical Research Institute (Tianjin, China). The triple helix collagen peptide, with an amino acid sequence of (GPO)2GFOGER(GPO)3, was purchased as HPLC-purified powder with a purity of >95% from ChinaPeptides (Shanghai, China). LWWNSYY was obtained as lyophilized powder with a purity of >95% from GL Biochem (Shanghai, China). Sheep blood containing 0.4% sodium citrate (w/v) was purchased from Ruite Bio-tec (Guangzhou, China). Bovine serum albumin (BSA) was purchased from Sigma (St. Louis, MO, USA). ρ-nitrophenylphosphate (PNPP) was purchased from Aladdin Industrial Corporation (Shanghai, China) with a purity of 98%. Sodium chloride (NaCl), tris (hydroxymethyl) aminomethane (Tris) and other reagents were of analytical grade from Sangon Biotech Co., Ltd. (Shanghai, China).
Adhesion was determined colorimetrically, following the procedure reported previously. Anticoagulated sheep blood was obtained by the addition of 0.4% sodium citrate (w/v), allowing about five days for the transportation before the tests. Platelet-rich plasma (PRP) was obtained as the supernatant after centrifugation of the anticoagulated sheep blood at 180 g for 20 min at 4 °C. Then platelet was obtained as the precipitate after centrifugation of PRP at 1000 g for 10 min at 4 °C[12], which was suspended in adhesion buffer (TBS containing 0.1% BSA) to prepare platelet suspension buffer for further use. Microtiter HB 96-well plates (Costar, Corning Inc., USA) were coated with 100 μL collagen peptide (100 μg/mL) dissolved in 0.01 M acetic acid for 4 h at 18 °C. Reagents without adhesion were discarded, and the wells were washed by 200 μL TBS (50 mM Tris-HCl, 140 mM NaCl, 2 mM Mg^2+, pH 7.4) for three times. Then, wells were blocked for 1 h by 100 μL of TBS containing 50 mg/mL BSA. After three washes by 200 μL TBS, 100 μL LWWNSYY or L-PGMA NPs with different concentrations dissolved in normal saline was applied to each well and incubated at 18 °C for 1 h. 100 μL platelet suspension buffer were added to each well after three washes to remove non-reacted inhibitors, and plates were incubated at 18 °C for 1 h. Unbound platelets were then discarded, and the wells were washed as above. 150 μL lysis buffer (0.1 M citrate, pH 5.4, containing 0.1% Triton X-100 and 5 mM p-nitrophenyl phosphate) was added to each well. Reaction was terminated after 1 h by addition of 100 μL NaOH (3 M), and plates were read at 405 nm using an automated plate reader (ELX800, BioTek Instruments Inc., USA). […] The effect of binding to BSA or B-PGMA NPs was eliminated. According to the standard above, the absorption value was transformed to inhibition ratio. Data was presented as the mean ± S.D. from three independent experiments (n = 8). Dose-response inhibition ratio curves were fitted using the Hill equation[48][49]. The concentration of LWWNSYY or L-PGMA NPs required to inhibit half of the specific binding, IC50, and the maximum inhibition ratio, IRmax, were calculated based on the Hill equation[50].

The nature of data set [2]: Particle size and zeta potential by dynamic light scattering. The format is physicochemical. As to conditions: Zetasizer Nano, deionized water, 25 °C, mean ± S.D., N = 3. How it is done:
Particle size and zeta potential were measured by dynamic light scattering (DLS) in deionized water at room temperature, as shown in Table 1.
The samples were submitted to size or zeta analysis by injecting them into disposable DLS or zeta potential cuvettes at 25 °C. The results were reported as the average of three repeated experiments.

Data set [3] has as its target Triple Helical Collagen Peptide (GPO)2GFOGER(GPO)3. In words: Isothermal titration calorimetry, binding to triple helical collagen peptide. As to conditions: L-PGMA in deionized water containing normal saline concentration, 600 μM collagen peptide, 10 °C, mean ± S.D., N = 3. Here is the method: ITC experiments were performed to investigate the thermodynamic binding characteristics of L-PGMA NPs on the triple helical collagen peptide (Fig. 4A). The triple helix collagen peptide containing GFOGER recognition sequence was titrated with L-PGMA NPs. The data of LWWNSYY was also examined and used as control.
as §1
The binding between collagen peptide and LWWNSYY in normal saline or normal saline containing 25% (v/v) EG was investigated following the procedure reported previously, the concentration of collagen peptide in the cell was 80 μM, while the concentration of LWWNSYY was 1.0 mM. To investigate the binding between collagen peptide and L-PGMA NPs in normal saline, the concentration of L-PGMA NPs in the cell was 48 μM (in full text, the concentration of L-PGMA NPs represents the concentration of conjugated LWWNSYY on the surface of L-PGMA NPs in solution), while the concentration of collagen peptide was 600 μM. All samples were treated by 20 min degassing prior to the examination. Isothermal calorimetric titrations were performed in a titration mode with a 1.425 mL sample cell, using a VP isothermal titration calorimeter (MicroCal, Northampton, MA). 8 μL LWWNSYY was injected over 16 s for 30 times, with a spacing time of 350 s between injections. The reference power was set to 20 μcal/s, and the stirring speed was 307 rpm. To reserve the active triple helical form of collagen peptide, the temperature in ITC cell was kept at 10 °C. […] Titration data were analyzed using MicroCal Origin (Version 7.0). […] Consequently, the integrated enthalpy was calculated from the single-site binding model. Thermodynamics parameters, including Kd, ΔH, TΔS, and Gibbs free energy (ΔG) were calculated.
A general note: In ITC the heat of successive injections is recorded.

Data set [4] can be described thus: UV-VIS quantification of immobilized LWWNSYY. The format is physicochemical. As to conditions: UV-VIS absorption peak at 280 nm; B-PGMA NPs background subtracted. From the text: The chemical conjugation of LWWNSYY onto the surface of PGMA-ECH NPs was examined using fourier transform infrared spectra (FTIR) spectroscopy (Fig. 2). […] This indicates successful chemical conjugation of LWWNSYY onto the surface of PGMA-ECH NPs through the opening of epoxy group. UV-VIS spectra further confirmed formation of L-PGMA NPs (Fig. S1 in Supporting Information), with an absorption peak at 280 nm corresponding to the characteristic absorption of tryptophan residues in LWWNSYY. […] The formation of LWWNSYY clusters due to its high hydrophobicity was then expected to be inhibited.
UV-VIS spectra of L-PGMA NPs were obtained by Lambda 35 (Perkin Elmer, USA) UV-VIS spectrophotometer. Spectra were collected within a range of 200–600 nm. The nanoparticles without conjugated LWWNSYY were denoted as B-PGMA NPs. That is, the value of B-PGMA NPs with the same concentration was subtracted as background in analysis. Data were representative of three repeated experiments.

The subject of data set [5] is carotid artery thrombus formation. As to the kind of experiment: FeCl3-induced carotid artery thrombus formation. The note with it: 0.625 mg/kg i.v., N = 5. The format is in vivo, Wistar rats. The text has this: Adult SPF male Wistar rats weighing 180–220 g were purchased from HFK Bioscience Co. (Beijing, China), and housed in a standard temperature-, light-, and humidity-controlled animal enclosures at the institute of Radiation Medicine in Chinese Academy of Medical Sciences. All rats had free access to food and water, and were acclimated for at least 1 week. The Institute of Radiation Medicine Animal Care and Use Committee approved the protocols for the care and use of animals, and all animal procedures were carried out in accordance with the approved guidelines.
FeCl3-induced arterial injury in rats was performed following the procedure reported previously. Rats were randomly divided into 4 groups (N = 5) and fasted for 12 h before the surgery. They were anesthetized with 10% chloral hydrate (3 mL/kg, i.p.) and placed on a 37 °C warming pad throughout the experiment. The right carotid artery was exposed by blunt dissection with minimal blood loss, and a Doppler flow probe (Transonic T400, USA) was attached to the artery to monitor blood flow continuously. […] After 20 min, the filter paper was removed, and the vessel was washed with normal saline. The blood flow was monitored continuously for 30 min after injury. At the end of 30-minute period, thrombus size was evaluated by the weight. Immediately after the experiment, the rats were sacrificed by cervical dislocation while still under deep anesthesia. Data are expressed as mean ± S.D. Data were analyzed by one-way ANOVA, followed by Duncan’s post hoc test. Statistical significance was set at p < 0.05.

Where no end group is shown, it is not given here.

Chain of Triple Helical Collagen Peptide (GPO)2GFOGER(GPO)3 (as listed by the source): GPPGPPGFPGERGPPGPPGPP

As for LWWNSYY [LWWNSYY], in the data set on ICR mice, the toxicity result was “little toxicity”. Moreover, the “IC50, concentration required to inhibit half of the specific binding (platelet adhesion)” value in data set [1] (Hill fit, mean ± S.D., N = 8) was 5.66 ± 1.13 µg/mL.
By Kd is commonly meant the concentration at which binding is half-saturated. Read a high Kd as lower affinity. “LWWNSYY [L-PGMA NPs, LWWNSYY-PGMA nanoparticles conjugate; LWWNSYY immobilized to the surface of poly(glycidyl methacrylate) nanoparticles]”: in data set [2] (DLS), the Hydrodynamic diameter worked out at 106.6 ± 0.91 nm and the Polydispersity index was determined as 0.06 ± 0.02. In data set [2], this substance yielded a Zeta potential of −32.9 ± 0.57 mV. Moreover, in data set [3] (48 μM L-PGMA NPs in cell (concentration of conjugated LWWNSYY), single-site binding model), the affinity, expressed as Kd, was 3.45 ± 1.06 µM. Further, in data set [3] (48 μM L-PGMA NPs in cell), the TΔS is recorded as 8.44 ± 0.37 kcal/mol, the ΔG is -7.09 ± 0.16 kcal/mol and the ΔH was found to be 1.35 ± 0.21 kcal/mol. Besides, the clinical signs entry in the data set with ICR mice (2.5mg/10ml/kg i.v., N = 4 (half males, half females), observed 7 days) is listed as “no abnormal clinical signs”. Besides, in the data set on ICR mice, the toxicity result was “little toxicity”. For the same substance, the “plateau of inhibition ratio curve, platelet adhesion” value in data set [1] (1–50 μg/mL LWWNSYY, 0.1–40 μg/mL L-PGMA NPs (conjugated LWWNSYY)) is on record as 100%. In addition, in data set [1] (Hill fit, 1–50 μg/mL LWWNSYY, 0.1–40 μg/mL L-PGMA NPs (conjugated LWWNSYY) in normal saline, 18 °C, mean ± S.D., N = 8), the “maximum inhibition ratio (IRmax) of platelet adhesion” value is recorded as 102.6 ± 3.4%. In addition, the “IC50, concentration required to inhibit half of the specific binding (platelet adhesion)” value in data set [1] (Hill fit, mean ± S.D., N = 8) turned out to be 1.83 ± 0.29 µg/mL. Moreover, the “IC50 relative to that of free LWWNSYY” value in data set [1] (decreased to this fraction of free LWWNSYY IC50) is recorded as 1/3. For the same substance, in data set [4], the “immobilized LWWNSYY” value was 3.2 ± 0.2 mg in 100 mg of PGMA NPs. For the same substance, the thrombus weight in data set [5] (15 min before 12% FeCl3, 30 min after injury, mean ± S.D., control 7.41 ± 1.75 mg, LWWNSYY p < 0.01, L-PGMA NPs p < 0.001 compared to control, no significant difference between the two) came to 3.70 ± 0.45 mg. The “occlusion at 30 min” value in data set [5] (15 min before 12% FeCl3) is on record as “No occlusion was observed”. The “mean blood flow, relative to initial blood flow” value in data set [5] (15 min before 12% FeCl3, at end of 30-min period, p < 0.001 compared to control or LWWNSYY group) is recorded as “about 85%”. In addition, in data set [5] (30 min after injury), the “reduction of thrombus weight compared to the control group” value is on record as roughly 50%. Besides, in data set [5] (30 min after injury, difference not significant), the “reduction of thrombus weight compared to LWWNSYY group” value is roughly 15%. In addition, in data set [5] (compared to the control or LWWNSYY group), the “mean blood flow rate at all time points” value is “significantly higher”.
